Measurements as given in patent US5221752A, “α-keto amide derivatives” (Nippon Kayaku Kabushiki Kaisha, priority 1990, dated 1993).
*1 amine or outer side, *2 acyl side, *3 side chain or, on linkers, in order; H or OH if unused. Where a SMILES comes first, the peptide text is derived from it. [ ]: non-standard residue; d: D form. The star is where a group is joined. ξ: configuration not given here. X1 = O=C(C(=O)[*:2])C1CCCN1[*:1]; Cbz = O=C(OCc1ccccc1)*; ξV = CC(C)C(N)C(=O)O; OBn = c1ccc(CO*)cc1

The molecules below were run against T1, prolyl endopeptidase (Sus scrofa, UniProt P23687) (assay: Enzyme inhibiting activity (prolyl endopeptidase; substrate benzyloxycarbonylglycylproline β-naphthylamide)). Settings: not given.
T1 construct: prolyl endopeptidase obtained from porcine kidneys used as the enzyme; from tissue; host or cells: porcine kidneys
T1 sequence (P23687 whole entry): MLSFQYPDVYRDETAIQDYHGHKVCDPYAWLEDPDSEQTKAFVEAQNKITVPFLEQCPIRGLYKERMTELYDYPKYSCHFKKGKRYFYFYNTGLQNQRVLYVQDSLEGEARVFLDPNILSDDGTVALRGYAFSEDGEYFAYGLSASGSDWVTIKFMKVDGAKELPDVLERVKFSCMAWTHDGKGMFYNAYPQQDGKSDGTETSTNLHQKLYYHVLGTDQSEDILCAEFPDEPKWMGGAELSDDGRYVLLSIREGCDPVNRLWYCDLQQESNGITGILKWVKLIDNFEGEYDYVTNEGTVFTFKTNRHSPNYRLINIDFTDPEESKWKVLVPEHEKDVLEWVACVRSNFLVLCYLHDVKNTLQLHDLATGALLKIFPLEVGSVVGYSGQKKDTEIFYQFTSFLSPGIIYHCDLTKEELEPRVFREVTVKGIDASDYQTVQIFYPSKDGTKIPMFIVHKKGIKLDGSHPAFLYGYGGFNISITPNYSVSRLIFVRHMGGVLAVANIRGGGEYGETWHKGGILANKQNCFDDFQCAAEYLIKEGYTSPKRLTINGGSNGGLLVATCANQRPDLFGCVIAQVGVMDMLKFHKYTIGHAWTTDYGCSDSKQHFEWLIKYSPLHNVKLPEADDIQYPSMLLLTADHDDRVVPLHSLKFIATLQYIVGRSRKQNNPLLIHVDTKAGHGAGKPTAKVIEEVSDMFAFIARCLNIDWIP
Type: biochemical, porcine
Protocol: Experiments were conducted to evaluate the enzyme inhibiting activity of the compounds of the present invention by using prolyl endopeptidase as the enzyme model. They are given in the following Test Examples.
Method of Assaying Enzyme Inhibiting Activity
Benzyloxycarbonylglycylproline β-naphthylamide (0.1 mM) used as the substrate was reacted with prolyl endopeptidase obtained from porcine kidneys used as the enzyme in a 0.025 M tris(hydroxymethyl)methanamine hydrochloric acid solution (pH: 7.5) at 37° C. reaction mixture for 30 min and then the absorbance of the product at 525 nm was measured.

Molecule	IC50 [nM]
CC(C)CC(NC(=O)C(=O)C1CCCN1C(=O)C(Cc1ccccc1)NC(=O)OCc1ccccc1)C(=O)OC(C)(C)C (stereo not drawn) [Example 23, N-benzyloxycarbonylphenylalanyl-[2-oxo-2-(pyrrolidin-2-yl)acetyl]-leucine t-butyl ester]	3.03
O=C(O)CNC(=O)C(=O)C1CCCN1C(=O)C(Cc1ccccc1)NC(=O)OCc1ccccc1 (stereo not drawn) [Example 22, N-Benzyloxycarbonylphenylalanyl-[2-oxo-2-(pyrrolidin-2-yl)acetyl]-glycine]	2.28
CC(C)C[C@@H](NC(=O)C(=O)C1CCCN1C(=O)C(NC(=O)C(NC(=O)OCc1ccccc1)C(C)C)C(C)C)C(=O)NC(C(=O)OCc1ccccc1)C(C)C (stereo partly drawn) [Example 7, N-Benzyloxycarbonylvalylvalyl-[2-oxo-2-(pyrrolidin-2-yl)acetyl]-D-leucylvaline benzyl ester] (Cbz-[ξV][ξV][X1][dL][ξV]-OBn)	9
CC(C)C[C@@H](NC(=O)C(=O)C1CCCN1C(=O)C(Cc1ccccc1)NC(=O)OCc1ccccc1)C(=O)O (stereo partly drawn) [Example 17, N-Benzyloxycarbonylphenylalanyl-[2-oxo-2-(pyrrolidin-2-yl)acetyl)-D-leucine]	2.42
CC(C)C[C@@H](NC(=O)C(=O)C1CCCN1C(=O)C(Cc1ccccc1)NC(=O)OCc1ccccc1)C(=O)NC(C)(C)C (stereo partly drawn) [Example 19, N-Benzyloxycarbonylphenylalanyl-[2-oxo-2-(pyrrolidin-2-yl)acetyl]-D-leucinet-butylamide]	2.36
CC(C)C[C@@H](NC(=O)C(=O)C1CCCN1C(=O)CC(C)(C)C)C(=O)OC(C)(C)C (stereo partly drawn) [Example 14, [2-Oxo-2-(N-(3,3-dimethylbutanoyl)pyrrolidin-2-yl)-acetyl]-D-leucine t-butyl ester]	21.9
CC(C)C[C@@H](NC(=O)C(=O)C1CCCN1C(=O)OCc1ccccc1)C(=O)OC(C)(C)C (stereo partly drawn) [Example 15, [2-Oxo-2-(N-benzyloxycarbonylpyrrolidin-2-yl)acetyl]-D-leucine t-butyl ester]	103
CC(C)C[C@@H](NC(=O)C(=O)C1CCCN1C(=O)C1CCCN1C(=O)OCc1ccccc1)C(=O)NC(C(=O)OCc1ccccc1)C(C)C (stereo partly drawn) [Example 20, N-Benzyloxycarbonylprolyl-[2-oxo-2-(pyrrolidin-2-yl)acetyl]-D-leucylvaline benzyl ester]	3.25
CC(C)(C)OC(=O)CNC(=O)C(=O)C1CCCN1C(=O)C(Cc1ccccc1)NC(=O)OCc1ccccc1 (stereo not drawn) [Example 21, N-Benzyloxycarbonylphenylalanyl-[2-oxo-2-(pyrrolidin-2-yl)acetyl]-glycine t-butyl ester]	1.49
CC(C)C[C@@H](NC(=O)C(=O)C1CCCN1C(=O)C(NC(=O)C(N)C(C)C)C(C)C)C(=O)NC(C(=O)O)C(C)C (stereo partly drawn) [Example 8, Valylvalyl-[2 oxo 2-(pyrrolidin-2-yl)acetyl]-D-leucylvaline] (H-[ξV][ξV][X1][dL][ξV]-OH)	19.9
CC(C)C[C@@H](NC(=O)C(=O)C1CCCN1C(=O)C(Cc1ccccc1)NC(=O)OCc1ccccc1)C(=O)OC(C)(C)C (stereo partly drawn) [Example 16, N-Benzyloxycarbonylphenylalanyl-[2-oxo-2-(pyrrolidin-2-yl)acetyl]-D-leucin t-butyl ester]	3.37

Same assay, conditions: prolyl endopeptidase from porcine kidneys; substrate 0.1 mM; pH 7.5; 37° C.; 30 min; absorbance 525 nm

Molecule	IC50 (concentration necessary for 50% inhibition) [ng/mL]
N-Benzyloxycarbonylphenylalanyl-[2 hydroxy-2-(pyrrolidin-2-yl)acetyl]-D-leucylvaline benzyl ester [Example 9]	2.4
